# Test results reported in patent publication US8222202B2 (priority 2006, dated 2012).
# Read-outs that look alike come from different tables or passages of the source. Positions of bridges follow the written chain, without caps; N, C: chain ends. Non-standard residues stand in square brackets, D forms with d. Residues, ends and D or L forms follow the SMILES beside them. *: point of attachment. Ala(4-thiazolyl) = N[C@@H](Cc1cscn1)C(=O)O; Dab(iPr) = CC(C)NCC[C@H](N)C(=O)O; 2Pal = N[C@@H](Cc1ccccn1)C(=O)O; 3Pal = N[C@@H](Cc1cccnc1)C(=O)O; 4Pal = N[C@@H](Cc1ccncc1)C(=O)O; 2Thi = N[C@@H](Cc1cccs1)C(=O)O; Aad = N[C@@H](CCCC(=O)O)C(=O)O; NHCH(CH2OH)2 = OCC(CO)N*; Orn = NCCC[C@H](N)C(=O)O; Dab = NCC[C@H](N)C(=O)O; NHCH2CH2OH = OCCN*; NHiBu = CC(C)CN*; X4 = OCCOCCN*; NHOH = ON*
# Key:
# [1] = target: T1, human oxytocin (hOT) receptor (Homo sapiens, UniProt P30559); test: luciferase-based transcriptional reporter assay, selectivity hOT versus hV1a; assay type: cell-based
# T1 construct: expressed in transfected cells
# T1 sequence (P30559 1-389): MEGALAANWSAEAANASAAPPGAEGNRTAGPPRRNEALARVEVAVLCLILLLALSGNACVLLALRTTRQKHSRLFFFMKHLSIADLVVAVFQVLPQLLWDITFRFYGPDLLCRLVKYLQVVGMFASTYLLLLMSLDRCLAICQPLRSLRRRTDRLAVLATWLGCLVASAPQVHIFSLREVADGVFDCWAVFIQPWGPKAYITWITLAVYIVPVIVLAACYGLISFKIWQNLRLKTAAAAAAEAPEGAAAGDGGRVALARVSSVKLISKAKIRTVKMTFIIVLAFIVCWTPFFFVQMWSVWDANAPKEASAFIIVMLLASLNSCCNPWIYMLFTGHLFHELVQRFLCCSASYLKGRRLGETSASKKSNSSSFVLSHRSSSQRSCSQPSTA
# Description: (§1) Agonist activity of compounds on the hV1a receptor was determined in a transcriptional reporter assay by transiently transfecting a hV1a receptor expression DNA into HEK-293 cells in concert with a reporter DNA containing intracellular calcium responsive promoter elements regulating expression of firefly luciferase. See Boss, V., Talpade, D. J., Murphy, T. J. J. Biol. Chem. 1996, May 3; 271(18), 10429-10432 for further guidance on this assay. […] To determine selectivity, compounds were tested in luciferase-based transcriptional reporter assays expressing the human oxytocin (hOT) receptor. Assays for other receptors (hV2, hV1b, rat V1a and rat V2) were also conducted.
# (§2) The EC50 value given is the geometric mean expressed in nanomol/L (nM). Selectivity values are given as EC50 ratios.
# [2] = target: T2, hV1a receptor (Homo sapiens, UniProt P37288); test: hV1a receptor transcriptional reporter (luciferase) agonist assay; assay type: cell-based
# T2 construct: expressed in transfected cells; host or cells: HEK-293
# T2 sequence (P37288 whole entry): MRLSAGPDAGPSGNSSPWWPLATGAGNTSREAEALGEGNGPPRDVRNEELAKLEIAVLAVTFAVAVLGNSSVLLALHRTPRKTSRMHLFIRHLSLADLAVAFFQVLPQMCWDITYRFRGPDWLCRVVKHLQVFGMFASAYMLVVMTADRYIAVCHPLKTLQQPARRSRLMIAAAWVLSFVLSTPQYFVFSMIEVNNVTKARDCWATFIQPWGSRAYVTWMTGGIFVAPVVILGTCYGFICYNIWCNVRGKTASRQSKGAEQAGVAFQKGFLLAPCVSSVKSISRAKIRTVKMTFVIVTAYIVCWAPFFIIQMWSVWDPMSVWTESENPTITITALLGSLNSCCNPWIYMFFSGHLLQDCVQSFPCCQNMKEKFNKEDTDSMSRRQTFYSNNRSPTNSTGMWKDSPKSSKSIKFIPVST
# Description: as §1, §2
# [3] = HEK-293 cells transiently transfected with hV1a receptor, 5 hours exposure, geometric mean, read-out: EC50 hV1a receptor
# [4] = class symbol, agonist efficacy at hOT receptor compared to AVP
Structure (SMILES),selectivity hOT/hV1a [1],EC50 [2],selectivity hOT/hV1a ([1]; EC50 ratio),"EC50 [2, 3]","selectivity hOT/hV1a [1, 4]"
CC[C@H](C)[C@@H]1NC(=O)[C@H](Cc2ccccc2)NC(=O)[C@@H](N)CSSC[C@@H](C(=O)N2CCC[C@H]2C(=O)N[C@@H](CCCN)C(=O)NCC(N)=O)NC(=O)[C@H](CC(N)=O)NC(=O)[C@H](CC(=O)N(C)C)NC1=O [Compound 7] (H-CFID(NMe2)NCP[Orn]G-NH2; disulfide 1-6),+ (key: +: selective hV1a receptor agonist; EC50 hOT/hV1a ratio not determined due to very low agonist efficacy (<30% compared to AVP) at the hOT receptor),2.84 nM,,,
CC[C@H](C)[C@@H]1NC(=O)[C@H](Cc2ccccc2)NC(=O)[C@@H](N)CSSC[C@@H](C(=O)N2CCC[C@H]2C(=O)N[C@@H](CCN)C(=O)NCC(N)=O)NC(=O)[C@H](CC(N)=O)NC(=O)[C@H](CCC(N)=O)NC1=O [Compound 8] (H-CFIQNCP[Dab]G-NH2; disulfide 1-6; N-terminus and C-terminus assumed),,,11,0.5 nM,
CC[C@H](C)[C@@H]1NC(=O)[C@H](Cc2ccncc2)NC(=O)[C@@H](N)CSSC[C@@H](C(=O)N2CCC[C@H]2C(=O)N[C@@H](CCN)C(=O)NCC(N)=O)NC(=O)[C@H](CC(N)=O)NC(=O)[C@H](CCC(N)=O)NC1=O [Compound 12] (H-C[4Pal]IQNCP[Dab]G-NH2; disulfide 1-6),+ (key: +: selective hV1a receptor agonist; EC50 hOT/hV1a ratio not determined due to very low agonist efficacy (<30% compared to AVP) at the hOT receptor),25 nM,,,
CC[C@H](C)[C@@H]1NC(=O)[C@H](Cc2cscn2)NC(=O)[C@@H](N)CSSC[C@@H](C(=O)N2CCC[C@H]2C(=O)N[C@@H](CCN)C(=O)NCC(N)=O)NC(=O)[C@H](CC(N)=O)NC(=O)[C@H](CCC(N)=O)NC1=O [Compound 13] (H-C[Ala(4-thiazolyl)]IQNCP[Dab]G-NH2; disulfide 1-6; N-terminus and C-terminus assumed),,,,18.8 nM,+ (selective hV1a receptor agonist; EC50 hOT/hV1a ratio not determined due to very low agonist efficacy (<30% compared to AVP) at the hOT receptor)
CC[C@H](C)[C@@H]1NC(=O)[C@H](Cc2cccs2)NC(=O)[C@@H](N)CSSC[C@@H](C(=O)N2CCC[C@H]2C(=O)N[C@@H](CCN)C(=O)NCC(N)=O)NC(=O)[C@H](CC(N)=O)NC(=O)[C@H](CCC(N)=O)NC1=O [Compound 14] (H-C[2Thi]IQNCP[Dab]G-NH2; disulfide 1-6),,,75,0.54 nM,
CC[C@H](C)[C@@H]1NC(=O)[C@H](Cc2ccccc2)NC(=O)[C@@H](N)CSSC[C@@H](C(=O)N2CCC[C@H]2C(=O)N[C@@H](CCCN)C(=O)NCC(N)=O)NC(=O)[C@H](CC(N)=O)NC(=O)[C@H](CCC(=O)NO)NC1=O [Compound 16] (H-CFIE(NHOH)NCP[Orn]G-NH2; disulfide 1-6; N-terminus and C-terminus assumed),,,,11.9 nM,+ (selective hV1a receptor agonist; EC50 hOT/hV1a ratio not determined due to very low agonist efficacy (<30% compared to AVP) at the hOT receptor)
CC[C@H](C)[C@@H]1NC(=O)[C@H](Cc2ccccn2)NC(=O)[C@@H](N)CSSC[C@@H](C(=O)N2CCC[C@H]2C(=O)N[C@@H](CCN)C(=O)NCC(N)=O)NC(=O)[C@H](CC(N)=O)NC(=O)[C@H](CCC(N)=O)NC1=O [Compound 17] (H-C[2Pal]IQNCP[Dab]G-NH2; disulfide 1-6),+ (key: +: selective hV1a receptor agonist; EC50 hOT/hV1a ratio not determined due to very low agonist efficacy (<30% compared to AVP) at the hOT receptor),30.3 nM,,,
CC[C@H](C)[C@@H]1NC(=O)[C@H](Cc2cccnc2)NC(=O)[C@@H](N)CSSC[C@@H](C(=O)N2CCC[C@H]2C(=O)N[C@@H](CCN)C(=O)NCC(N)=O)NC(=O)[C@H](CC(N)=O)NC(=O)[C@H](CCC(N)=O)NC1=O [Compound 18] (H-C[3Pal]IQNCP[Dab]G-NH2; disulfide 1-6; N-terminus and C-terminus assumed),,,,29.9 nM,+ (selective hV1a receptor agonist; EC50 hOT/hV1a ratio not determined due to very low agonist efficacy (<30% compared to AVP) at the hOT receptor)
CCNC(=O)CC[C@@H]1NC(=O)[C@H]([C@@H](C)CC)NC(=O)[C@H](Cc2ccccc2)NC(=O)[C@@H](N)CSSC[C@@H](C(=O)N2CCC[C@H]2C(=O)N[C@@H](CCCN)C(=O)NCC(N)=O)NC(=O)[C@H](CC(N)=O)NC1=O [Compound 20] (H-CFIE(NHEt)NCP[Orn]G-NH2; disulfide 1-6; N-terminus and C-terminus assumed),,,,39.3 nM,+ (selective hV1a receptor agonist; EC50 hOT/hV1a ratio not determined due to very low agonist efficacy (<30% compared to AVP) at the hOT receptor)
CC[C@H](C)[C@@H]1NC(=O)[C@H](Cc2ccccc2)NC(=O)[C@@H](N)CSSC[C@@H](C(=O)N2CCC[C@H]2C(=O)N[C@@H](CCCN)C(=O)NCC(N)=O)NC(=O)[C@H](CC(N)=O)NC(=O)[C@H](CCC(=O)NCC(C)C)NC1=O [Compound 21] (H-CFIE(NHiBu)NCP[Orn]G-NH2; disulfide 1-6),,,,20.7 nM,+ (selective hV1a receptor agonist; EC50 hOT/hV1a ratio not determined due to very low agonist efficacy (<30% compared to AVP) at the hOT receptor)
CC[C@H](C)[C@@H]1NC(=O)[C@H](Cc2ccccc2)NC(=O)[C@@H](N)CSSC[C@@H](C(=O)N2CCC[C@H]2C(=O)N[C@@H](CCNC(C)C)C(=O)NCC(N)=O)NC(=O)[C@H](CC(N)=O)NC(=O)[C@H](CCCC(N)=O)NC1=O [Compound 22] (H-CFI[Aad](NH2)NCP[Dab(iPr)]G-NH2; disulfide 1-6; N-terminus and C-terminus assumed),,,,18.1 nM,+ (selective hV1a receptor agonist; EC50 hOT/hV1a ratio not determined due to very low agonist efficacy (<30% compared to AVP) at the hOT receptor)
CC[C@H](C)[C@@H]1NC(=O)[C@H](Cc2ccccc2)NC(=O)[C@@H](N)CSSC[C@@H](C(=O)N2CCC[C@H]2C(=O)N[C@@H](CCCN)C(=O)NCC(N)=O)NC(=O)[C@H](CC(N)=O)NC(=O)[C@H](CC(=O)NCCO)NC1=O [Compound 23] (H-CFID(NHCH2CH2OH)NCP[Orn]G-NH2; disulfide 1-6),,,,7.97 nM,+ (selective hV1a receptor agonist; EC50 hOT/hV1a ratio not determined due to very low agonist efficacy (<30% compared to AVP) at the hOT receptor)
CC[C@H](C)[C@@H]1NC(=O)[C@H](Cc2ccccc2)NC(=O)[C@@H](N)CSSC[C@@H](C(=O)N2CCC[C@H]2C(=O)N[C@@H](CCCN)C(=O)NCC(N)=O)NC(=O)[C@H](CC(N)=O)NC(=O)[C@H](CC(=O)NO)NC1=O [Compound 24] (H-CFID(NHOH)NCP[Orn]G-NH2; disulfide 1-6; N-terminus and C-terminus assumed),,,,4.09 nM,+ (selective hV1a receptor agonist; EC50 hOT/hV1a ratio not determined due to very low agonist efficacy (<30% compared to AVP) at the hOT receptor)
CC[C@H](C)[C@@H]1NC(=O)[C@H](Cc2ccccc2)NC(=O)[C@@H](N)CSSC[C@@H](C(=O)N2CCC[C@H]2C(=O)N[C@@H](CCCN)C(=O)NCC(N)=O)NC(=O)[C@H](CC(N)=O)NC(=O)[C@H](CC(=O)NC(CO)CO)NC1=O [Compound 27] (H-CFID(NHCH(CH2OH)2)NCP[Orn]G-NH2; disulfide 1-6; N-terminus and C-terminus assumed),,,,16.2 nM,+ (selective hV1a receptor agonist; EC50 hOT/hV1a ratio not determined due to very low agonist efficacy (<30% compared to AVP) at the hOT receptor)
CC[C@H](C)[C@@H]1NC(=O)[C@H](Cc2ccccc2)NC(=O)[C@@H](N)CSSC[C@@H](C(=O)N2CCC[C@H]2C(=O)N[C@@H](CCCN)C(=O)NCC(N)=O)NC(=O)[C@H](CC(N)=O)NC(=O)[C@H](CC(=O)NCCOCCO)NC1=O [Compound 29] (H-CFID(X4)NCP[Orn]G-NH2; disulfide 1-6; N-terminus and C-terminus assumed),,,,4.77 nM,+ (selective hV1a receptor agonist; EC50 hOT/hV1a ratio not determined due to very low agonist efficacy (<30% compared to AVP) at the hOT receptor)
CC[C@H](C)[C@@H]1NC(=O)[C@H](Cc2ccccc2)NC(=O)[C@@H](N)CSSC[C@@H](C(=O)N2CCC[C@H]2C(=O)N[C@@H](CCN)C(=O)NCC(N)=O)NC(=O)[C@H](CC(N)=O)NC(=O)[C@H](CC(=O)NC)NC1=O [Compound 31] (H-CFID(NHMe)NCP[Dab]G-NH2; disulfide 1-6; N-terminus and C-terminus assumed),,,,3.91 nM,+ (selective hV1a receptor agonist; EC50 hOT/hV1a ratio not determined due to very low agonist efficacy (<30% compared to AVP) at the hOT receptor)
